Results: patent publication US7056355B2, “Hair dye composition and dyeing method” (Kao Corporation, priority 2002, dated 2006)

Assay: pKa determination in DMF/water by titration with UV-visible spectra
Type: physicochemical
Details: DMF/water (1/1 by volume) solution, dye 2×10^−5 mol/l
Method: The pKa value is determined in DMF/water (1/1-mixture, by volume) as follows:
The dye is dissolved in a solution of a DMF/water (1/1; volume ratio) to a final concentration of 2×10^−5 mol/l. After the resulting solution is adjusted to pH 2, using 1.0 mol/l hydrochloric acid, the solution is titrated with an aqueous 1.0 mol/l sodium hydroxide solution. Recording the change of the visible ultra-violet absorption spectrum, the inflection point is determined by regression analysis.

| Compound | pKa |
| --- | --- |
| N#CC1=NN(c2ccccc2)C(=O)C1/N=N/c1ccc(S(N)(=O)=O)cc1 [Dye D-6] | 4.2 |
| COc1ccc(/N=N/C2C(=O)N(c3ccccc3)N=C2C#N)cc1 [Dye D-7] | 4.6 |
| N#CC(/N=N/c1ccc(S(N)(=O)=O)cc1)C(=O)c1ccccc1 [Dye D-14] | 5.82 |
| COc1ccc(/N=N/C2C(=O)N(c3ccc(S(N)(=O)=O)cc3)N=C2C#N)cc1 [Dye D-15] | 4.36 |
| Cc1nn2nc(C(C)(C)C)c(/N=N/c3cc(Cl)c(S(N)(=O)=O)cc3Cl)c2[nH]1 [Dye D-17] | 5.92 |
| CS(=O)(=O)c1ccc(/N=N/c2ccc(O)c3ccccc23)c(C#N)c1 [Dye D-25] | 6.5 |
| CC(=O)Nc1cc(/N=N/c2ccc(S(C)(=O)=O)cc2C#N)c2ccccc2c1O [Dye D-26] | 7.1 |

Same assay, conditions: DMF/water (1/1 by volume), dye 2×10^−5 mol/l

| Compound | pka |
| --- | --- |
| N#CC1=NN(c2ccccc2)C(=O)C1/N=N/c1cc(Cl)c(S(N)(=O)=O)cc1Cl [Dye D-18] | 2.86 |
| CS(=O)(=O)Nc1cccc2c(O)ccc(/N=N/c3ccc([N+](=O)[O-])cc3S(C)(=O)=O)c12 [Dye D-21] | 4.32 |
| NS(=O)(=O)c1cccc(S(=O)(=O)Nc2cccc3c(O)ccc(/N=N/c4ccc([N+](=O)[O-])cc4)c23)c1 [Dye D-22] | 6.34 |
| CCOC(=O)Nc1cc(/N=N/c2ccc(S(C)(=O)=O)cc2C#N)c2c(NS(C)(=O)=O)cccc2c1O [Dye D-24] | 5.09 |
